Measured values taken from PubChem BioAssay AID1332 (Southern Research Institute, 2008).
In brackets after ≈: the same amount, converted by molar mass.

system: M. tuberculosis H37Rv growth inhibition; test: Confirmatory growth inhibition assay, mycobacterium tuberculosis h37rv, with cytotoxicity (AID 1332);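 note: bacteria incubated 7 days before adding Alamar blue readout reagent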

| Compound | IC90 [µg/mL] |
| --- | --- |
| C[n+]1cc2c3c(ccc2c2ccc4cc5c(cc4c21)OCO5)OCO3 | 7.62 |
| CNCCCC12CCC(c3ccccc31)c1ccccc12 | 17.9 (≈ 64.5 µM) |
| CN(C)c1ccc(O)c2c1CC1CC3[C@@H](N(C)C)C(=O)C(C(N)=O)=C(O)[C@]3(O)C(=O)C1=C2O (stereo partly drawn) | 2.04 (≈ 4.46 µM) |
| CC(C)N1CCN(c2ccc(OC[C@H]3CO[C@](Cn4cncn4)(c4ccc(Cl)cc4Cl)O3)cc2)CC1 | 7.54 (≈ 14.2 µM) |
| COc1cc(NS(=O)(=O)c2ccc(N)cc2)ncn1 | 3.78 (≈ 13.5 µM) |
| Fc1ccc(C(OCCN2CCN(CCCc3ccccc3)CC2)c2ccc(F)cc2)cc1 | 3.58 (≈ 7.94 µM) |
| CC1=CC(=O)c2ccccc2C1=O | 5.38 (≈ 31.2 µM) |
| CCCCCCCCNC(C)C(O)c1ccc(SC(C)C)cc1 (stereo not drawn) | 2.25 (≈ 6.67 µM) |
| Clc1ccc(COC(Cn2ccnc2)c2ccc(Cl)cc2Cl)cc1 (stereo not drawn) | 1.98 (≈ 5.18 µM) |
| NC[C@H]1O[C@H](O[C@H]2[C@H](O)[C@@H](O[C@H]3O[C@H](CO)[C@@H](O)[C@H](N)[C@H]3O)[C@H](N)C[C@@H]2N)[C@H](N)C[C@@H]1O | 1.94 (≈ 4.16 µM) |
| CN(C)/N=N/c1nc[nH]c1C(N)=O | 0.639 (≈ 3.51 µM) |
| N[C@@H]1CONC1=O | 1.05 (≈ 10.3 µM) |
| NC(=NCCCCCCN=C(N)/N=C(\N)Nc1ccc(Cl)cc1)/N=C(\N)Nc1ccc(Cl)cc1 | 0.295 (≈ 0.584 µM) |
| CN(C)[C@@H]1C(=O)C(C(N)=O)=C(O)[C@@]2(O)C(=O)C3=C(O)c4c(O)cccc4[C@@](C)(O)[C@H]3C[C@@H]12 | 6.54 (≈ 14.7 µM) |
| Oc1c(I)cc(Cl)c2cccnc12 | 0.482 (≈ 1.58 µM) |
| CN[C@@H]1C(O[C@H]2O[C@H](CO)[C@@H](N)[C@H](O)[C@H]2O)O[C@H]2C[C@@H](N)[C@@H](O[C@H]3[C@H](O)[C@@H](O)[C@H](N)C[C@@H]3N)OC2[C@@H]1O (stereo partly drawn) | 3.57 (≈ 6.61 µM) |
| CCN(CC)C(=S)SSC(=S)N(CC)CC | 0.164 (≈ 0.553 µM) |
| CN1CCCC(CC2c3ccccc3Sc3ccccc32)C1 (stereo not drawn) | 10.4 (≈ 33.7 µM) |
| CCN(CC)CCOc1ccc(/C(=C(/Cl)c2ccccc2)c2ccccc2)cc1 | 6.13 (≈ 15.1 µM) |
| Nc1ccc(S(=O)(=O)Nc2nccs2)cc1 | 1.3 (≈ 5.08 µM) |
| C=CCOC(Cn1ccnc1)c1ccc(Cl)cc1Cl (stereo not drawn) | 2 (≈ 6.73 µM) |
| CCCCCCCCCCCCCCCC[N+](C)(C)CCN(Cc1ccc(OC)cc1)c1ncccn1 | 1.1 |

| Compound | IC90 [µg/mL] |
| --- | --- |
| Cc1cccc(CN2CCN(C(c3ccccc3)c3ccc(Cl)cc3)CC2)c1 (stereo not drawn) | 7.72 (≈ 19.7 µM) |
| O=C(O)c1cn(C2CC2)c2cc(N3CCNCC3)c(F)cc2c1=O | 0.042 (≈ 0.127 µM) |
| CC1COc2c(N3CCN(C)CC3)c(F)cc3c(=O)c(C(=O)O)cn1c23 (stereo not drawn) | 0.067 (≈ 0.185 µM) |
| CCSc1ccc2c(c1)N(CCCN1CCN(C)CC1)c1ccccc1S2 | 6.34 (≈ 15.9 µM) |
| CN1C[C@H](CNC(=O)OCc2ccccc2)C[C@@H]2c3cccc4c3c(cn4C)C[C@H]21 | 5.85 (≈ 14.5 µM) |
| O=C(Nc1ccc([N+](=O)[O-])cc1Cl)c1cc(Cl)ccc1O | 0.076 (≈ 0.232 µM) |
| COc1cc2cc3c4cc(OC)c(OC)cc4cc[n+]3c(C)c2cc1OC | 2.13 |
| C=C(NC(=O)C(=C)NC(=O)c1csc(C2=N[C@H]3c4csc(n4)[C@H]4NC(=O)c5csc(n5)[C@H]([C@@](C)(O)[C@@H](C)O)NC(=O)[C@H]5CSC(=N5)/C(=C\C)NC(=O)[C@H]([C@@H](C)O)NC(=O)c5csc(n5)[C@]3(CC2)NC(=O)[C@H](C)NC(=O)C(=C)NC(=O)[C@H](C)NC(=O)[C@H](C(C)CC)N[C@@H]2C=Cc3c([C@H](C)O)cc(nc3[C@H]2O)C(=O)O[C@@H]4C)n1)C(N)=O (stereo partly drawn) | 0.357 (≈ 0.214 µM) |
| O=C1CN(/N=C/c2ccc([N+](=O)[O-])o2)C(=O)N1 | 3.92 (≈ 16.5 µM) |
| CN(C)CCCN1c2ccccc2Sc2ccc(Cl)cc21 | 7.45 (≈ 23.4 µM) |
| CCn1cc(C(=O)O)c(=O)c2cc(F)c(N3CCNCC3)nc21 | 4.1 (≈ 12.8 µM) |
| Cc1cc(NS(=O)(=O)c2ccc(N)cc2)no1 | 4.34 (≈ 17.1 µM) |
| CCCCC(CC)CN=C(N)NC(N)=NCCCCCCN=C(N)NC(N)=NCC(CC)CCCC (stereo not drawn) | 0.729 (≈ 1.43 µM) |
| CN[C@@H]1[C@@H](O)[C@@H](O[C@@H]2[C@@H](O)[C@H](O[C@H]3O[C@H]([C@@H](C)N)CC[C@H]3N)[C@@H](N)C[C@H]2N)OC[C@]1(C)O | 0.859 (≈ 1.85 µM) |
| O=c1[nH]c2ccccc2n1C1CCN(CCCC(c2ccc(F)cc2)c2ccc(F)cc2)CC1 | 2.34 (≈ 5.06 µM) |
| CNCCC=C1c2ccccc2CCc2ccccc21 | 16.8 (≈ 63.6 µM) |
| CC(NCCC(c1ccccc1)c1ccccc1)c1ccccc1 (stereo not drawn) | 8.02 (≈ 25.4 µM) |
| OC(c1cc(C(F)(F)F)nc2c(C(F)(F)F)cccc12)C1CCCCN1 (stereo not drawn) | 4.16 (≈ 11 µM) |
| Nc1ccc(S(=O)(=O)Nc2ccnn2-c2ccccc2)cc1 | 12.8 (≈ 40.7 µM) |
| CC[C@H]1OC(=O)[C@H](C)[C@@H](OC2C[C@@](C)(OC)[C@@H](O)[C@H](C)O2)[C@H](C)[C@@H](O[C@@H]2O[C@H](C)C[C@H](N(C)C)[C@H]2O)[C@](C)(O)C[C@@H](C)/C(=N\OCOCCOC)[C@H](C)[C@@H](O)[C@]1(C)O (stereo partly drawn) | 11.5 (≈ 13.7 µM) |
| COc1cc(NC(C)CCCN)c2ncccc2c1 (stereo not drawn) | 14.5 (≈ 55.9 µM) |
